In patent publication US20170240566A1, “AMINO-SUBSTITUTED ANNULATED PYRIMIDINES AND USE THEREOF” (Bayer Pharma Aktiengesellschaft, priority 2014, published 2017) one finds IC50, minimal effective concentration and solubility data, which are given here for five compounds.

Structures are written as SMILES. Converted amounts (≈) assume the structure as drawn.

For data set [1], the target named is T1, human phosphodiesterase 5 (PDE 5) (Homo sapiens, UniProt O76074).
T1 construct: PDE 5 preparations are obtained from human platelets by disruption; from tissue; host or cells: human platelets
Kind of data set: Inhibition of human phosphodiesterase 5 (PDE 5). The format is biochemical. The note with it: PDE 5 preparation from human platelets; in some cases means of individual determinations. On the procedure:
B-3. Inhibition of human phosphodiesterase 5 (PDE 5)
PDE 5 preparations are obtained from human platelets by disruption (Microfluidizer®, 800 bar, 3 passes), followed by centrifugation (75 000 g, 60 min, 4° C.) and ion exchange chromatography of the supernatant on a Mono Q 10/10 column (linear sodium chloride gradient, elution with a 0.2-0.3M solution of sodium chloride in buffer (20 mM Hepes pH 7.2, 2 mM magnesium chloride). Fractions having PDE 5 activity are combined (PDE 5 preparation) and stored at −80° C.
To determine their in vitro action on human PDE 5, the test substances are dissolved in 100% DMSO and serially diluted. Typically, dilution series (1:3) from 200 μM to 0.091 μM are prepared (resulting final concentrations in the test: 4 μM to 0.0018 μM). In each case 2 μl of the diluted substance solutions are placed into the wells of microtitre plates (Isoplate-96/200W; Perkin Elmer). Subsequently, 50 μl of a dilution of the above-described PDE 5 preparation are added. The dilution of the PDE 5 preparation is chosen such that during the later incubation less than 70% of the substrate are converted (typical dilution: 1:100; dilution buffer: 50 mM tris/hydrochloric acid pH 7.5, 8.3 mM magnesium chloride, 1.7 mM EDTA, 0.2% BSA). The substrate, [8-^3H] cyclic guanosine-3′,5′-monophosphate (1 μCi/μl; Perkin Elmer), is diluted 1:2000 with assay buffer (50 mM tris/hydrochloric acid pH 7.5, 8.3 mM magnesium chloride, 1.7 mM EDTA) to a concentration of 0.0005 μμCi/μl. By addition of 50 μl (0.025 μCi) of the diluted substrate, the enzyme reaction is finally started. The test mixtures are incubated at room temperature for 60 min and the reaction is stopped by adding 25 μl of a suspension of 18 mg/ml yttrium scintillation proximity beads in water (phosphodiesterase beads for SPA assays, RPNQ 0150, Perkin Elmer). The microtitre plates are sealed with a film and left to stand at room temperature for 60 min. Subsequently, the plates are analysed for 30 s per well in a Microbeta scintillation counter (Perkin Elmer). IC50 values are determined using the graphic plot of the substance concentration against percentage PDE 5 inhibition.

The test system of data set [2] is recombinant guanylate cyclase reporter cell line. Kind of data set: Effect on a recombinant guanylate cyclase reporter cell line. The format is cell-based. The note with it: minimum effective concentration; in some cases means of individual determinations; read-out: MEC. On the procedure: B-2. Effect on a Recombinant Guanylate Cyclase Reporter Cell Line
The cellular activity of the compounds of the invention is determined using a recombinant guanylate cyclase reporter cell line, as described in F. Wunder et al., Anal. Biochem. 339, 104-112 (2005). Representative values (MEC=minimum effective concentration) for the compounds of the invention are shown in the table below (Table 1; in some cases as means of individual determinations): […]

The nature of data set [3]: Solubility of substances in buffer pH 6.5. To be noted: aqueous buffer, kinetic from dmso stock, PBS buffer pH 6.5, room temperature. The format is physicochemical. On the procedure:
B-10. Determination of the Solubility of Substances in Buffer pH 6.5
40 μl of DMSO are added to 2 mg of a test substance [50 g/l]. 10 μl of this solution are removed and introduced into 990 μl of PBS buffer pH 6.5 (c=500 μg/ml). This solution/suspension is shaken at room temperature for 24 h. After 30 min of ultracentrifugation at 114 000 g, the supernatant is removed, diluted with ACN/water 8:2 and analyzed by LC-MSMS.
For calibration, likewise 10 pi are removed from the DMSO stock solution and introduced into 823 μl of DMSO (c=600 μg/ml). Quantification takes place using a five-point calibration curve.

In general, IC50 refers to the concentration that inhibits the measured activity by half. A word on the solubility: it is how much of the substance goes into solution per volume. For `Cc1nc2c(cc1F)c(-c1nc(NCC(N)(CF)CF)c3c(n1)NC(=O)C3(C)C)nn2Cc1cccc(F)c1F` [Example 1, 4-{[2-Amino-3-fluoro-2-(fluoromethyl)propyl]amino}-2[1-(2,3-difluorobenzyl)-5-fluoro-6-methyl-1H-pyrazolo[3,4-b]pyridin-3-yl]-5,5-dimethyl-5,7-dihydro-6H-pyrrolo[2,3-d]pyrimidin-6-one], half-maximal inhibition in data set [1] (IC50) was put at 52 nM. Besides, the minimal effective concentration in data set [2] was 0.3 µM. For the same compound, in data set [3], the concentration in solution (solubility at 24 h) came to 7.6 µg/mL (≈ 13.6 µM).

`Cc1nc2c(cc1F)c(-c1nc(NCC(N)(CF)CF)c3c(n1)NC(=O)C3(C)C)nn2Cc1ncccc1F` [Example 4, 4-{[2-Amino-3-fluoro-2-(fluoromethyl)propyl]amino}-2-{5-fluoro-1-[(3-fluoropyridin-2-yl)methyl]-6-methyl-1H-pyrazolo[3,4-b]pyridin-3-yl}-5,5-dimethyl-5,7-dihydro-6H-pyrrolo[2,3-d]pyrimidin-6-one] had an IC50 in data set [1] of 180 nM. Further, in data set [2], the minimal effective concentration is 1 µM. In data set [3], this compound yielded a solubility at 24 h of 260 µg/mL (≈ 479 µM).

In turn, `Cc1nc2c(cc1F)c(-c1nc(NCC(N)(CF)CF)c3c(n1)NC(=O)C3(C)C)nn2Cc1ccccc1F` [Example 2, 4-{[2-Amino-3-fluoro-2-(fluoromethyl)propyl]amino}-2-[5-fluoro-1-(2-fluorobenzyl)-6-methyl-1H-pyrazolo[3,4-b]pyridin-3-yl]-5,5-dimethyl-5,7-dihydro-6H-pyrrolo[2,3-d]pyrimidin-6-one] came in with an IC50 in data set [1] of 160 nM. Moreover, the minimal effective concentration in data set [2] is 0.1 µM. The solubility at 24 h in data set [3] was 5.1 µg/mL (≈ 9.4 µM).

Turning to `CC1(C)C(=O)Nc2nc(-c3nn(Cc4ncccc4F)c4ncc(F)cc34)nc(NCC(N)(CF)CF)c21` [Example 5, 4-{[2-Amino-3-fluoro-2-(fluoromethyl)propyl]amino}-2-{5-fluoro-1-[(3-fluoropyridin-2-yl)methyl]-1H-pyrazolo[3,4-b]pyridin-3-yl}-5,5-dimethyl-5,7-dihydro-6H-pyrrolo[2,3-d]pyrimidin-6-one], in data set [1], the half-maximal inhibitory concentration (IC50) came out at 70 nM. For the same compound, the minimal effective concentration in data set [2] stood at 1 µM. In data set [3], the solubility at 24 h turned out to be 278 µg/mL (≈ 526 µM).

In turn, `Cc1nc2c(cc1F)c(-c1nc(NCC(N)(CF)CF)c3c(n1)NC(=O)C3(C)C(F)(F)F)nn2Cc1cccc(F)c1F` (single isomer, unassigned; ent-4) [Example 8, ent-4-{[2-Amino-3-fluoro-2-(fluoromethyl)propyl]amino}-2-[1-(2,3-difluorobenzyl)-5-fluoro-6-methyl-1H-pyrazolo[3,4-b]pyridin-3-yl]-5-methyl-5-(trifluoromethyl)-5,7-dihydro-6H-pyrrolo[2,3-d]pyrimidin-6-one (Enantiomer B)] gave an IC50 in data set [1] of 120 nM. Also, in data set [2], the minimal effective concentration came out at 0.1 µM.
